Legend:
Calu-1 = assay: SANGER: Inhibition of human Calu-1 cell growth in a cell viability assay.; format: functional, cell-based
Caov-3 cell line = assay: cells; format: functional, cell-based; details: Homo sapiens
Description: SANGER: Inhibition of human Caov-3 cell growth in a cell viability assay.

DV-90 = assay: cells; format: functional, cell-based; details: Homo sapiens
Description: SANGER: Inhibition of human DV-90 cell growth in a cell viability assay.

Daudi = assay: cells; format: functional, cell-based; details: Homo sapiens
Description: SANGER: Inhibition of human Daudi cell growth in a cell viability assay.

ECC12 = assay: cells; format: functional, cell-based; details: Homo sapiens
Description: SANGER: Inhibition of human ECC12 cell growth in a cell viability assay.

ECC4 = assay: cells; format: functional, cell-based; details: Homo sapiens
Description: SANGER: Inhibition of human ECC4 cell growth in a cell viability assay.

EFE-184 = assay: cells; format: functional, cell-based; details: Homo sapiens
Description: SANGER: Inhibition of human EFE-184 cell growth in a cell viability assay.

EW-7 = assay: SANGER: Inhibition of human EW-7 cell growth in a cell viability assay.; format: functional, cell-based; details: Homo sapiens, EW-7
HCC1143 = assay: cells; format: functional, cell-based; details: Homo sapiens
Description: SANGER: Inhibition of human HCC1143 cell growth in a cell viability assay.

HCC1599 = assay: cells; format: functional, cell-based; details: Homo sapiens
Description: SANGER: Inhibition of human HCC1599 cell growth in a cell viability assay.

IPC-298 = assay: SANGER: Inhibition of human IPC-298 cell growth in a cell viability assay.; format: functional, cell-based
K052 = assay: cells; format: functional, cell-based; details: Homo sapiens
Description: SANGER: Inhibition of human K052 cell growth in a cell viability assay.

KARPAS-422 = assay: cells; format: functional, cell-based; details: Homo sapiens
Description: SANGER: Inhibition of human KARPAS-422 cell growth in a cell viability assay.

L-540 = assay: cells; format: functional, cell-based; details: Homo sapiens
Description: SANGER: Inhibition of human L-540 cell growth in a cell viability assay.

LB647-SCLC = assay: cells; format: functional, cell-based; details: Homo sapiens
Description: SANGER: Inhibition of human LB647-SCLC cell growth in a cell viability assay.

LP-1 = assay: cells; format: functional, cell-based; details: Homo sapiens
Description: SANGER: Inhibition of human LP-1 cell growth in a cell viability assay.

LU-165 = assay: cells; format: functional, cell-based; details: Homo sapiens
Description: SANGER: Inhibition of human LU-165 cell growth in a cell viability assay.

MC-CAR = assay: cells; format: functional, cell-based; details: Homo sapiens
Description: SANGER: Inhibition of human MC-CAR cell growth in a cell viability assay.

MDA-MB-134-VI = assay: cells; format: functional, cell-based; details: Homo sapiens
Description: SANGER: Inhibition of human MDA-MB-134-VI cell growth in a cell viability assay.

MDA-MB-468 = assay: cells; format: functional, cell-based; details: Homo sapiens
Description: SANGER: Inhibition of human MDA-MB-468 cell growth in a cell viability assay.

MES-SA = assay: cells; format: functional, cell-based, Homo sapiens; details: Homo sapiens, MES-SA
Description: SANGER: Inhibition of human MES-SA cell growth in a cell viability assay.

MFE-296 = assay: SANGER: Inhibition of human MFE-296 cell growth in a cell viability assay.; format: functional, cell-based
MRK-nu-1 = assay: cells; format: functional, cell-based; details: Homo sapiens
Description: SANGER: Inhibition of human MRK-nu-1 cell growth in a cell viability assay.

NB1 = assay: cells; format: functional, cell-based; details: Homo sapiens
Description: SANGER: Inhibition of human NB1 cell growth in a cell viability assay.

NCI-H1417 = assay: cells; format: functional, cell-based; details: Homo sapiens
Description: SANGER: Inhibition of human NCI-H1417 cell growth in a cell viability assay.

NCI-H1522 = assay: cells; format: functional, cell-based; details: Homo sapiens
Description: SANGER: Inhibition of human NCI-H1522 cell growth in a cell viability assay.

NCI-H1618 = assay: cells; format: functional, cell-based; details: Homo sapiens
Description: SANGER: Inhibition of human NCI-H1618 cell growth in a cell viability assay.

NCI-H1734 = assay: cells; format: functional, cell-based; details: Homo sapiens
Description: SANGER: Inhibition of human NCI-H1734 cell growth in a cell viability assay.

NCI-H1963 = assay: cells; format: functional, cell-based; details: Homo sapiens
Description: SANGER: Inhibition of human NCI-H1963 cell growth in a cell viability assay.

NCI-H2141 = assay: cells; format: functional, cell-based; details: Homo sapiens
Description: SANGER: Inhibition of human NCI-H2141 cell growth in a cell viability assay.

NCI-H2196 = assay: cells; format: functional, cell-based; details: Homo sapiens
Description: SANGER: Inhibition of human NCI-H2196 cell growth in a cell viability assay.

NCI-H748 = assay: cells; format: functional, cell-based; details: Homo sapiens
Description: SANGER: Inhibition of human NCI-H748 cell growth in a cell viability assay.

NCI-H838 = assay: cells; format: functional, cell-based; details: Homo sapiens
Description: SANGER: Inhibition of human NCI-H838 cell growth in a cell viability assay.

P31-FUJ = assay: cells; format: functional, cell-based; details: Homo sapiens
Description: SANGER: Inhibition of human P31-FUJ cell growth in a cell viability assay.

PLC-PRF-5 = assay: cells; format: functional, cell-based; details: Homo sapiens
Description: SANGER: Inhibition of human PLC-PRF-5 cell growth in a cell viability assay.

RPMI 8402 = assay: SANGER: Inhibition of human RPMI-8402 cell growth in a cell viability assay.; format: functional, cell-based
RT-4 = assay: SANGER: Inhibition of human RT4 cell growth in a cell viability assay.; format: functional, cell-based; details: Homo sapiens, RT-4
SK-CO-1 = assay: cells; format: functional, cell-based; details: Homo sapiens
Description: SANGER: Inhibition of human SK-CO-1 cell growth in a cell viability assay.

SNG-M = assay: cells; format: functional, cell-based; details: Homo sapiens
Description: SANGER: Inhibition of human SNG-M cell growth in a cell viability assay.

SNU-423 = assay: cells; format: functional, cell-based, Homo sapiens; details: Homo sapiens, SNU-423
Description: SANGER: Inhibition of human SNU-423 cell growth in a cell viability assay.

SNU-475 = assay: cells; format: functional, cell-based; details: Homo sapiens
Description: SANGER: Inhibition of human SNU-475 cell growth in a cell viability assay.

SR = assay: cells; format: functional, cell-based; details: Homo sapiens
Description: SANGER: Inhibition of human SR cell growth in a cell viability assay.

BC1 cell line = assay: SANGER: Inhibition of human BC-1 cell growth in a cell viability assay.; format: functional, cell-based
BL-41 = assay: cells; format: functional, cell-based; details: Homo sapiens
Description: SANGER: Inhibition of human BL-41 cell growth in a cell viability assay.

TT = assay: cells; format: functional, cell-based; details: Homo sapiens
Description: SANGER: Inhibition of human TT cell growth in a cell viability assay.

TUR = assay: cells; format: functional, cell-based; details: Homo sapiens
Description: SANGER: Inhibition of human TUR cell growth in a cell viability assay.

WSU-NHL = assay: cells; format: functional, cell-based; details: Homo sapiens
Description: SANGER: Inhibition of human WSU-NHL cell growth in a cell viability assay.

CCF-STTG1 = assay: cells; format: functional, cell-based; details: Homo sapiens
Description: SANGER: Inhibition of human CCF-STTG1 cell growth in a cell viability assay.

COLO 205 = assay: cells; format: functional, cell-based; details: Homo sapiens
Description: SANGER: Inhibition of human COLO-205 cell growth in a cell viability assay.

## COC(=O)CNC(=O)C(=O)OC
Calu-1
  IC50: 896 µM
Caov-3 cell line
  IC50: 1080 µM
DV-90
  IC50: > 4000 µM
Daudi
  IC50: 68.3 µM
ECC12
  IC50: 1800 µM
ECC4
  IC50: 3580 µM
EFE-184
  IC50: 553 µM
EW-7
  IC50: 729 µM
HCC1143
  IC50: > 4000 µM
HCC1599
  IC50: 129 µM
IPC-298
  IC50: 1670 µM
K052
  IC50: 171 µM
KARPAS-422
  IC50: 162 µM
L-540
  IC50: 239 µM
LB647-SCLC
  IC50: 3530 µM
LP-1
  IC50: 190 µM
LU-165
  IC50: 804 µM
MC-CAR
  IC50: 509 µM
MDA-MB-134-VI
  IC50: > 4000 µM
MDA-MB-468
  IC50: > 4000 µM
MES-SA
  IC50: 1070 µM
MFE-296
  IC50: 318 µM
MRK-nu-1
  IC50: 1800 µM
NB1
  IC50: 210 µM
NCI-H1417
  IC50: 2380 µM
NCI-H1522
  IC50: > 4000 µM
NCI-H1618
  IC50: > 4000 µM
NCI-H1734
  IC50: > 4000 µM
NCI-H1963
  IC50: 1030 µM
NCI-H2141
  IC50: 351 µM
NCI-H2196
  IC50: 2960 µM
NCI-H748
  IC50: 254 µM
NCI-H838
  IC50: 1340 µM
P31-FUJ
  IC50: > 4000 µM
PLC-PRF-5
  IC50: 1190 µM
RPMI 8402
  IC50: 313 µM
RT-4
  IC50: 649 µM
SK-CO-1
  IC50: > 4000 µM
SNG-M
  IC50: > 4000 µM
SNU-423
  IC50: 175 µM
SNU-475
  IC50: 2580 µM
SR
  IC50: 4.58 µM
BC1 cell line
  IC50: 86.1 µM
BL-41
  IC50: 54.9 µM
TT
  IC50: 538 µM
TUR
  IC50: 171 µM
WSU-NHL
  IC50: > 4000 µM
CCF-STTG1
  IC50: > 4000 µM
COLO 205
  IC50: > 4000 µM

## COc1cc([C@@H]2c3cc4c(cc3[C@@H](O[C@@H]3O[C@@H]5CO[C@@H](C)O[C@H]5[C@H](O)[C@H]3O)[C@H]3COC(=O)[C@H]23)OCO4)cc(OC)c1O [ETOPOSIDE]
Calu-1
  IC50: 7.89 µM
Caov-3 cell line
  IC50: > 16 µM
DV-90
  IC50: > 16 µM
Daudi
  IC50: 5.36 µM
ECC12
  IC50: 0.954 µM
ECC4
  IC50: > 16 µM
EFE-184
  IC50: > 16 µM
EW-7
  IC50: 0.125 µM
HCC1143
  IC50: > 16 µM
HCC1599
  IC50: 0.616 µM
IPC-298
  IC50: 4.33 µM
K052
  IC50: > 16 µM
KARPAS-422
  IC50: 4.33 µM
L-540
  IC50: 1.06 µM
LB647-SCLC
  IC50: 2 µM
LP-1
  IC50: > 16 µM
LU-165
  IC50: > 16 µM
MC-CAR
  IC50: 0.58 µM
MDA-MB-134-VI
  IC50: > 16 µM
MDA-MB-468
  IC50: 1.47 µM
MES-SA
  IC50: 0.458 µM
MFE-296
  IC50: 0.763 µM
MRK-nu-1
  IC50: 0.116 µM
NB1
  IC50: 10.2 µM
NCI-H1417
  IC50: 4.61 µM
NCI-H1522
  IC50: > 16 µM
NCI-H1618
  IC50: > 16 µM
NCI-H1734
  IC50: 1.51 µM
NCI-H1963
  IC50: 12.1 µM
NCI-H2141
  IC50: 8.52 µM
NCI-H2196
  IC50: 7.49 µM
NCI-H748
  IC50: 0.871 µM
NCI-H838
  IC50: > 16 µM
P31-FUJ
  IC50: > 16 µM
PLC-PRF-5
  IC50: > 16 µM
RPMI 8402
  IC50: 0.271 µM
RT-4
  IC50: > 16 µM
SK-CO-1
  IC50: 1.63 µM
SNG-M
  IC50: 1.16 µM
SNU-423
  IC50: 1.75 µM
SNU-475
  IC50: > 16 µM
SR
  IC50: 0.443 µM
BC1 cell line
  IC50: 0.545 µM
BL-41
  IC50: 2.08 µM
TT
  IC50: > 16 µM
TUR
  IC50: 0.722 µM
WSU-NHL
  IC50: 4.36 µM
CCF-STTG1
  IC50: 6.91 µM
COLO 205
  IC50: 0.265 µM

## Cc1cnc(-c2cnc(NCCNc3ccc(C#N)cn3)nc2-c2ccc(Cl)cc2Cl)[nH]1 [LADUVIGLUSIB]
Calu-1
  IC50: > 2.56 µM
Caov-3 cell line
  IC50: > 2.56 µM
DV-90
  IC50: > 2.56 µM
Daudi
  IC50: > 2.56 µM
ECC12
  IC50: > 2.56 µM
ECC4
  IC50: > 2.56 µM
EFE-184
  IC50: > 2.56 µM
EW-7
  IC50: > 2.56 µM
HCC1143
  IC50: > 2.56 µM
HCC1599
  IC50: > 2.56 µM
IPC-298
  IC50: > 2.56 µM
K052
  IC50: > 2.56 µM
KARPAS-422
  IC50: > 2.56 µM
L-540
  IC50: > 2.56 µM
LB647-SCLC
  IC50: > 2.56 µM
LP-1
  IC50: > 2.56 µM
LU-165
  IC50: > 2.56 µM
MC-CAR
  IC50: > 2.56 µM
MDA-MB-134-VI
  IC50: > 2.56 µM
MDA-MB-468
  IC50: > 2.56 µM
MES-SA
  IC50: > 2.56 µM
MFE-296
  IC50: > 2.56 µM
MRK-nu-1
  IC50: > 2.56 µM
NB1
  IC50: > 2.56 µM
NCI-H1417
  IC50: > 2.56 µM
NCI-H1522
  IC50: > 2.56 µM
NCI-H1618
  IC50: > 2.56 µM
NCI-H1734
  IC50: > 2.56 µM
NCI-H1963
  IC50: > 2.56 µM
NCI-H2141
  IC50: > 2.56 µM
NCI-H2196
  IC50: > 2.56 µM
NCI-H748
  IC50: > 2.56 µM
NCI-H838
  IC50: > 2.56 µM
P31-FUJ
  IC50: > 2.56 µM
PLC-PRF-5
  IC50: > 2.56 µM
RPMI 8402
  IC50: > 2.56 µM
RT-4
  IC50: > 2.56 µM
SK-CO-1
  IC50: > 2.56 µM
SNG-M
  IC50: > 2.56 µM
SNU-423
  IC50: 2.5 µM
SNU-475
  IC50: > 2.56 µM
SR
  IC50: > 2.56 µM
BC1 cell line
  IC50: > 2.56 µM
BL-41
  IC50: > 2.56 µM
TT
  IC50: > 2.56 µM
TUR
  IC50: > 2.56 µM
WSU-NHL
  IC50: > 2.56 µM
CCF-STTG1
  IC50: > 2.56 µM
COLO 205
  IC50: > 2.56 µM

Reference: ChEMBL document CHEMBL1201861, “Genomics of Drug Sensitity in Cancer screening data, Wellcome Trust Sanger Institute”
